Consider 18 compounds from patent publication US20240190889A1, “NEW CYCLOPENTA-THIENO-DIAZEPINE DERIVATIVES AS GABA A GAMMA1 POSITIVE ALLOSTERIC MODULATORS” (Hoffmann-La Roche Inc., priority 2021, published 2024).

This test addresses h-GABA-A α2β2γ1 receptor expressed in Xenopus laevis oocytes (Homo sapiens (Human), UniProt P47869+Q8N1C3). The test can be described thus: Two-electrode voltage clamp electrophysiology in Xenopus oocytes expressing GABAA receptors. The class given is cell-based. The note with it: for Efficacy (GABA)%: % modulation of GABA EC20 = 100*(Fold increase-1), compound at 30-fold Ki α2β2γ1; for Fold increase h-GABA-A α2β2γ1 oocyte @ 30-fold Ki: GABA EC20, test compound at approx. 30-fold its Ki α2β2γ1, at least 3 oocytes. From the text: Functional Expression of GABAA Receptors:
Xenopus Oocytes Preparation
Xenopus laevis oocytes at maturation stages V-VI were used for the expression of cloned mRNA encoding GABAA receptor subunits. Oocytes ready for RNA micro-injection were bought from Ecocyte, Castrop-Rauxel, Germany and stored in modified Barth's medium (composition in mM: NaCl 88, KCl 1, NaHCO3 2.4, HEPES 10, MgSO4 0.82, CaNO3 0.33, CaCl2 0.33, pH=7.5) at 20 C. until the experiment.
Xenopus Oocytes Microinjection
Oocytes were plated in 96-well plates for microinjection using the Roboinject automated instrument (MultiChannelSystems, Reutlingen, Germany). Approximately 50 nL of an aqueous solution containing the RNA transcripts for the subunits of the desired GABAA receptor subtype was injected into each oocyte. […] Oocytes were kept in modified Barth's medium (composition in mM: NaCl 88, KCl 1, NaHCO3 […], HEPES 10, MgSO4 0.82, CaNO3 0.33, CaCl2 0.33, pH=7.5) at 20° C. until the experiment.
Electrophysiological experiments were performed using the Roboocyte instrument (MultiChannelSystems, Reutlingen, Germany) on days 3 to 5 after the micro-injection of mRNA. During the experiment the oocytes were constantly superfused by a solution containing (in mM) NaCl 90, KCl 1, HEPES 5, MgCl: 1, CaCl, 1 (pH 7.4). Oocytes were impaled by two glass microelectrodes (resistance: 0.5-0.8 MS2) which were filled with a solution containing KCl 1M +K-acetate 1.5 M and voltage-clamped to −80 mV. The recordings were performed at room temperature using the Roboocyte two-electrode voltage clamp system (Multichannelsystem). After an initial equilibration period of 1.5 min GABA was added for 1.5 min at a concentration evoking approximately 20% of a maximal current response (EC20). After another rest interval of 2.5 min GABA was again added evoking a response of similar amplitude and shape. […] Current traces were recorded at a digitization rate of 10 Hz during and shortly before and after the GABA application.
Each compound and concentration was tested on at least 3 oocytes. Different oocytes were used for different compound concentrations.
For the analysis, the digitized current traces of the first and second GABA response were superimposed and, if necessary, rescaled to equal maximal amplitudes. The ratio between the two responses during the time interval of test compound application was calculated point by point. The extremum of the resulting “ratio trace” was taken as the efficacy (“Fold increase”) of the compound expressed as “% modulation of GABA EC” (100* (Fold increase-1)).

For `Cc1nnc2n1-c1sc3c(c1C(c1c(F)cccc1F)=NC2)C[C@@H](C#N)C3` [Example 2, (13R)-9-(2,6-difluorophenyl)-3-methyl-16-thia-2,4,5,8-tetrazatetracyclo [8.6.0.02,6.011,15]hexadeca-1(10),3,5,8,11(15)-pentaene-13-carbonitrile], the “Efficacy (GABA)%” value amounted to 35% and the “Fold increase h-GABA-A α2β2γ1 oocyte @ 30-fold Ki” value came out at 1.35.

For the compound `Cc1nnc2n1-c1sc3c(c1C(c1c(F)cccc1Cl)=NC2)C[C@@H](C(F)F)C3` [Example 4, (13R)-9-(2-chloro-6-fluoro-phenyl)-13-(difluoromethyl)-3-methyl-16-thia-2,4,5,8-tetrazatetracyclo [8.6.0.02,6.011,15]hexadeca-1(10),3,5,8,11(15)-pentaene], the “Efficacy (GABA)%” value came to 51% and the “Fold increase h-GABA-A α2β2γ1 oocyte @ 30-fold Ki” value is 1.51.

On to `Fc1cccc(Cl)c1C1=NCc2nnc(C3CC3)n2-c2sc3c(c21)C[C@@H](C(F)F)C3` [Example 6, (13R)-9-(2-chloro-6-fluoro-phenyl)-3-cyclopropyl-13-(difluoromethyl)-16-thia-2,4,5,8-tetrazatetracyclo [8.6.0.02,6.011,15]hexadeca-1(10),3,5,8,11(15)-pentaene], for which the “Efficacy (GABA)%” value worked out at 85% and the “Fold increase h-GABA-A α2β2γ1 oocyte @ 30-fold Ki” value is 1.85.

Consider `Fc1cccc(F)c1C1=NCc2nnc(C3CC3)n2-c2sc3c(c21)C[C@@H](C(F)F)C3` [Example 7, (13R)-3-cyclopropyl-13-(difluoromethyl)-9-(2,6-difluorophenyl)-16-thia-2,4,5,8-tetrazatetracyclo [8.6.0.02,6.011,15]hexadeca-1(10),3,5,8,11(15)-pentaene], for which the “Efficacy (GABA)%” value was 71% and the “Fold increase h-GABA-A α2β2γ1 oocyte @ 30-fold Ki” value was found to be 1.71.

Regarding `C[C@@H]1N=C(c2c(F)cccc2F)c2c(sc3c2C[C@@H](C(F)F)C3)-n2c(C3CC3)nnc21` [Example 8, (7S,13R)-3-cyclopropyl-13-(difluoromethyl)-9-(2,6-difluorophenyl)-7-methyl-16-thia-2,4,5,8-tetrazatetracyclo [8.6.0.02,6.011,15]hexadeca-1(10),3,5,8,11(15)-pentaene], the “Efficacy (GABA)%” value was 37% and the “Fold increase h-GABA-A α2β2γ1 oocyte @ 30-fold Ki” value is listed as 1.37.

Turning to `Cc1nnc2n1-c1sc3c(c1C(c1c(F)cccc1Cl)=N[C@H]2C)C[C@@H](C(F)F)C3` [Example 9, (7S,13R)-9-(2-chloro-6-fluoro-phenyl)-13-(difluoromethyl)-3,7-dimethyl-16-thia-2,4,5,8-tetrazatetracyclo [8.6.0.02,6.011,15]hexadeca-1(10),3,5,8,11(15)-pentaene], the “Efficacy (GABA)%” value turned out to be 38% and the “Fold increase h-GABA-A α2β2γ1 oocyte @ 30-fold Ki” value turned out to be 1.38.

As to `Fc1cccc(F)c1C1=NCc2nnc(-c3cccnn3)n2-c2sc3c(c21)C[C@@H](C(F)F)C3` [Example 10, (13R)-13-(difluoromethyl)-9-(2,6-difluorophenyl)-3-pyridazin-3-yl-16-thia-2,4,5,8-tetrazatetracyclo [8.6.0.02,6.011,15]hexadeca-1(10),3,5,8,11(15)-pentaene], the “Efficacy (GABA)%” value turned out to be 47% and the “Fold increase h-GABA-A α2β2γ1 oocyte @ 30-fold Ki” value stood at 1.47.

Take `C[C@@H]1N=C(c2c(F)cccc2Cl)c2c(sc3c2C[C@@H](C(F)F)C3)-n2c(C3CC3)nnc21` [Example 11, (7S,13R)-9-(2-chloro-6-fluoro-phenyl)-3-cyclopropyl-13-(difluoromethyl)-7-methyl-16-thia-2,4,5,8-tetrazatetracyclo [8.6.0.02,6.011,15]hexadeca-1(10),3,5,8,11(15)-pentaene]: the “Efficacy (GABA)%” value is 44% and the “Fold increase h-GABA-A α2β2γ1 oocyte @ 30-fold Ki” value was found to be 1.44.

For the compound `C[C@@H]1N=C(c2c(F)cccc2Cl)c2c(sc3c2C[C@@H](C(F)F)C3)-n2c(-c3cccnn3)nnc21` [Example 12, (7S,13R)-9-(2-chloro-6-fluoro-phenyl)-13-(difluoromethyl)-7-methyl-3-pyridazin-3-yl-16-thia-2,4,5,8-tetrazatetracyclo [8.6.0.02,6.011,15]hexadeca-1(10),3,5,8,11(15)-pentaene], the “Efficacy (GABA)%” value is on record as 62% and the “Fold increase h-GABA-A α2β2γ1 oocyte @ 30-fold Ki” value was found to be 1.62.

Take `Cc1nnc2n1-c1sc3c(c1C(c1c(F)cccc1F)=N[C@H]2C)C[C@@H](C(F)(F)F)C3` [Example 13, (7S,13R)-9-(2,6-difluorophenyl)-3,7-dimethyl-13-(trifluoromethyl)-16-thia-2,4,5,8-tetrazatetracyclo [8.6.0.02,6.011,15]hexadeca-1(10),3,5,8,11(15)-pentaene]: the “Efficacy (GABA)%” value came out at 51% and the “Fold increase h-GABA-A α2β2γ1 oocyte @ 30-fold Ki” value is given as 1.51.

As for `Cc1nnc2n1-c1sc3c(c1C(c1c(F)cccc1F)=NC2)C[C@@H](C)C3` [Example 14, (13R)-9-(2,6-difluorophenyl)-3,13-dimethyl-16-thia-2,4,5,8-tetrazatetracyclo [8.6.0.02,6.011,15]hexadeca-1(10),3,5,8,11(15)-pentaene], the “Efficacy (GABA)%” value worked out at 68% and the “Fold increase h-GABA-A α2β2γ1 oocyte @ 30-fold Ki” value is recorded as 1.68.

For the compound `Cc1nnc2n1-c1sc3c(c1C(c1c(F)cccc1F)=N[C@H]2C)C[C@@H](C)C3` [Example 15, (7S,13R)-9-(2,6-difluorophenyl)-3,7,13-trimethyl-16-thia-2,4,5,8-tetrazatetracyclo [8.6.0.02,6.011,15]hexadeca-1(10),3,5,8,11(15)-pentaene], the “Efficacy (GABA)%” value is 45% and the “Fold increase h-GABA-A α2β2γ1 oocyte @ 30-fold Ki” value is listed as 1.45.

With `Cc1nc2n(n1)-c1sc3c(c1C(c1c(F)cccc1F)=N[C@H]2C)C[C@@H](C(F)F)C3` [Example 16, (7S,13R)-13-(difluoromethyl)-9-(2,6-difluorophenyl)-4,7-dimethyl-16-thia-2,3,5,8-tetrazatetracyclo [8.6.0.02,6.011,15]hexadeca-1(10),3,5,8,11(15)-pentaene], the “Efficacy (GABA)%” value amounted to 32% and the “Fold increase h-GABA-A α2β2γ1 oocyte @ 30-fold Ki” value turned out to be 1.32.

For the compound `Cc1nc2n(n1)-c1sc3c(c1C(c1c(F)cccc1F)=N[C@H]2C)C[C@H](C(F)F)C3` [Example 17, (7S,13S)-13-(difluoromethyl)-9-(2,6-difluorophenyl)-4,7-dimethyl-16-thia-2,3,5,8-tetrazatetracyclo [8.6.0.02,6.011,15]hexadeca-1(10),3,5,8,11(15)-pentaene], the “Efficacy (GABA)%” value is given as 25% and the “Fold increase h-GABA-A α2β2γ1 oocyte @ 30-fold Ki” value was 1.25.

Consider `C[C@@H]1N=C(c2c(F)cccc2F)c2c(sc3c2C[C@@H](C(F)F)C3)-n2nc(C(=O)NCCO)nc21` [Example 18, (7S,13R)-13-(difluoromethyl)-9-(2,6-difluorophenyl)-N-(2-hydroxyethyl)-7-methyl-16-thia-2,3,5,8-tetrazatetracyclo [8.6.0.02,6.011,15]hexadeca-1(10),3,5,8,11(15)-pentaene-4-carboxamide], for which the “Efficacy (GABA)%” value came out at 65% and the “Fold increase h-GABA-A α2β2γ1 oocyte @ 30-fold Ki” value is recorded as 1.65.

With `C[C@@H]1N=C(c2c(F)cccc2F)c2c(sc3c2C[C@@H](C(F)F)C3)-n2nc(C(=O)N3CCS(=O)(=O)CC3)nc21` [Example 19, [(7S,13R)-13-(difluoromethyl)-9-(2,6-difluorophenyl)-7-methyl-16-thia-2,3,5,8-tetrazatetracyclo [8.6.0.02,6.011,15]hexadeca-1(10),3,5,8,11(15)-pentaen-4-yl]-(1,1-dioxo-1,4-thiazinan-4-yl)methanone], the “Efficacy (GABA)%” value is given as 43% and the “Fold increase h-GABA-A α2β2γ1 oocyte @ 30-fold Ki” value worked out at 1.43.

With `Cc1cnc2n1-c1sc3c(c1C(c1c(F)cccc1F)=N[C@H]2C)C[C@@H](C(F)F)C3` [Example 20, (7S,13R)-13-(difluoromethyl)-9-(2,6-difluorophenyl)-3,7-dimethyl-16-thia-2,5,8-triazatetracyclo [8.6.0.02,6.011,15]hexadeca-1(10),3,5,8,11(15)-pentaene], the “Efficacy (GABA)%” value was 70% and the “Fold increase h-GABA-A α2β2γ1 oocyte @ 30-fold Ki” value is 1.70.

In the case of `C[C@@H]1N=C(c2c(F)cccc2F)c2c(sc3c2C[C@@H](C(F)F)C3)-n2c(CO)cnc21` [Example 21, [(7S,13R)-13-(difluoromethyl)-9-(2,6-difluorophenyl)-7-methyl-16-thia-2,5,8-triazatetracyclo [8.6.0.02,6.011,15]hexadeca-1(10),3,5,8,11(15)-pentaen-3-yl]methanol], the “Efficacy (GABA)%” value was 68% and the “Fold increase h-GABA-A α2β2γ1 oocyte @ 30-fold Ki” value is reported as 1.68.
